The source of these data is ChEMBL document CHEMBL1142081, “Evaluation of the in vivo activity of tribendimidine against Schistosoma mansoni, Fasciola hepatica, Clonorchis sinensis, and Opisthorchis viverrini” (2007).

Assay [1] concerns Schistosoma mansoni. Description: Reduction of female worm burden in Schistosoma mansoni Liberian infected NMRI mouse at 800 mg/kg, po relative to control. The class given is functional. Set-up: scale not given: the % may be the effect or the level left.
The subject of assay [2] is Schistosoma mansoni. Description: Reduction of total worm burden in Schistosoma mansoni Liberian infection NMRI mouse at 800 mg/kg, po relative to control. Set-up: scale not given: the % may be the effect or the level left. The class given is functional.
Assay [3] concerns Fasciola hepatica. Briefly: Reduction of worm burden in Fasciola hepatica infected Wistar rat at 800 mg/kg, po relative to control. Set-up: scale not given: the % may be the effect or the level left. The class given is functional.
Assay [4] has as its system Fasciola hepatica. Briefly: Effect on Fasciola hepatica infected Wistar rat assessed as infection cured rats at 800 mg/kg, po relative to control. It counts as functional, organism-based. Set-up: dose 800 mg/kg.
Assay [5] is described as follows: Reduction of worm burden in Clonorchis sinensis infected Wistar rat at 150 mg/kg, po relative to control. The class given is functional. Also noted: scale not given: the % may be the effect or the level left.
Assay [6] in a line: Reduction of worm burden in Opisthorchis viverrini infected Syrian Gold hamster at 200 mg/kg, po relative to control. The class given is functional. Also noted: scale not given: the % may be the effect or the level left.
Assay [7] can be described thus: Reduction of worm burden in Clonorchis sinensis infected Wistar rat at 75 mg/kg, po relative to control. Also noted: scale not given: the % may be the effect or the level left. The class given is functional.
The nature of assay [8]: Reduction of worm burden in Opisthorchis viverrini infected Syrian Gold hamster at 400 mg/kg, po relative to control. It counts as functional. Also noted: scale not given: the % may be the effect or the level left.
Assay [9] deals with Schistosoma mansoni. Briefly: Effect on Schistosoma mansoni Liberian infected NMRI mouse assessed as infection cured mice at 400 mg/kg, po relative to control.

Active and inactive are the calls of the source. The rule behind the calls is not given here.

In the case of `C/C(=N/c1ccc(/N=C/c2ccc(/C=N/c3ccc(/N=C(/C)N(C)C)cc3)cc2)cc1)N(C)C` [TRIBENDIMIDINE], the Activity amounted to 0% in the assay on Schistosoma mansoni [1]; 0% in the assay with Schistosoma mansoni [2]; 0% in the assay on Fasciola hepatica [3]; 99.1% in assay [5]; 61.4% in assay [6]; 68.9% in assay [7]. The Activity in assay [8] was 95.7%. Besides, the result in the assay with Fasciola hepatica [4] and in the assay on Schistosoma mansoni [9] was Active.
